For assay [1], the target named is T1, NS3-NS4 (Hepatitis C virus genotype 1a, UniProt P27958). In words: cell-based. Particulars: EC50, NS3-NS4 activity.
Assay [2] deals with T1, NS3-NS4. In words: NS3-NS4 activity, IC50 (Example 37, Table 8). The format is biochemical.

T1 sequence (P27958 1027-1657): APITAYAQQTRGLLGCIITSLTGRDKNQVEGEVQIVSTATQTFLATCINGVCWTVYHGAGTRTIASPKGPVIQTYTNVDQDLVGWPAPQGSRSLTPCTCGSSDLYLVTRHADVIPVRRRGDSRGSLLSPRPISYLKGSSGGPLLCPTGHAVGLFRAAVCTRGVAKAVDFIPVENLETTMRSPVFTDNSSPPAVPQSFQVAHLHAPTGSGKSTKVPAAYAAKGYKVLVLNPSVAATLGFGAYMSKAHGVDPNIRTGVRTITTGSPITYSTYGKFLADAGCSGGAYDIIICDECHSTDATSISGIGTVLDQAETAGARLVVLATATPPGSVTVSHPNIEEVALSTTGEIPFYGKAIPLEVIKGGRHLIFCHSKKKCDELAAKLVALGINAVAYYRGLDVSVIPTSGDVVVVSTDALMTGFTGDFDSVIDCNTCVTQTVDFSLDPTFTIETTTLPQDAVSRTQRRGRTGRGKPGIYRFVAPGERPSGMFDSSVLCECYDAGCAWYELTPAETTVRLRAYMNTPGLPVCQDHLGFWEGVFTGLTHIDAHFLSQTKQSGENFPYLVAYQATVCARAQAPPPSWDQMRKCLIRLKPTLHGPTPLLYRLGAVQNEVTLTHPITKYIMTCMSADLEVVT
T1 sequence (P27958 1658-1711): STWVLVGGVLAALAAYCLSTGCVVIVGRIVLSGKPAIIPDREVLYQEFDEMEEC

With `Cc1cc(S(=O)(=O)NC(=O)[C@@]23C[C@H]2/C=C\CCCCC[C@H](NC(=O)OC(C)(C)C)C(=O)N2C[C@H](OC(=O)N4Cc5cccc(F)c5C4)C[C@H]2C(=O)N3)c(C)s1` [Compound 302, (2R,6S,13aS,14aR,16aS,Z)-6-(tert-butoxycarbonylamino)-14a-(2,5-dimethylthiophen-3-ylsulfonylcarbamoyl)-5,16-dioxo-1,2,3,5,6,7,8,9,10,11,13a,14,14a,15,16,16a-hexadecahydrocyclopropa[e]pyrrolo[1,2-a][1,4]diazacyclopentadecin-2-yl 4-fluoroisoindoline-2-carboxylate], the half-maximal effective concentration (EC50) at NS3-NS4 [1] was under 100 nM. Besides, the IC50 against NS3-NS4 [2] is under 100 nM.

Consider `O=C(N[C@H]1CCCCC/C=C\[C@@H]2C[C@@]2(C(=O)NS(=O)(=O)C2CC2)NC(=O)[C@@H]2C[C@@H](OC(=O)N3Cc4cccc(F)c4C3)CN2C1=O)OC1CCOCC1` [Compound 401, (2R,6S,13aS,14aR,16aS,Z)-14a-(cyclopropylsulfonylcarbamoyl)-5,16-dioxo-6-((tetrahydro-2H-pyran-4-yloxy)carbonylamino)-1,2,3,5,6,7,8,9,10,11,13a,14,14a,15,16,16a-hexadecahydrocyclopropa[e]pyrrolo[1,2-a][1,4]diazacyclopentadecin-2-yl 4-fluoroisoindoline-2-carboxylate], for which, at NS3-NS4 [1], the half-maximal effective concentration (EC50) was under 100 nM. At NS3-NS4 [2], this compound registered an IC50 of under 100 nM.

As to `CC(C)(C)OC(=O)N[C@H]1CCOCC/C=C\[C@@H]2C[C@@]2(C(=O)NS(=O)(=O)c2cc(Cl)sc2Cl)NC(=O)[C@@H]2C[C@@H](OC(=O)N3Cc4cccc(Cl)c4C3)CN2C1=O` [Compound 322, (2R,6S,13aS,14aR,16aS,Z)-6-(tert-butoxycarbonylamino)-14a-(2,5-dichlorothiophen-3-ylsulfonylcarbamoyl)-5,16-dioxo-2,3,5,6,7,8,10,11,13a,14,14a,15,16,16a-tetradecahydro-1H-cyclopropa[j]pyrrolo[1,2-f][1,6,9]oxadiazacyclopentadecin-2-yl 4-chloroisoindoline-2-carboxylate], the half-maximal effective concentration (EC50) on NS3-NS4 [1] was under 100 nM. The same compound registered an IC50 on NS3-NS4 [2] of under 100 nM.

Turning to `Cc1cccc(CS(=O)(=O)NC(=O)[C@@]23C[C@H]2/C=C\CCCCC[C@H](NC(=O)OC(C)(C)C)C(=O)N2C[C@H](OC(=O)N4Cc5cccc(F)c5C4)C[C@H]2C(=O)N3)c1` [Compound 514], the EC50 at NS3-NS4 [1] was 100 to 1000 nM. This compound also registered a 50% inhibitory concentration (IC50) at NS3-NS4 [2] of under 100 nM.

Consider `O=C1N[C@]2(C(=O)NS(=O)(=O)C3CC3)C[C@H]2/C=C\CCCCC[C@H](Nc2nc(-c3ccc(F)cn3)cs2)C(=O)N2C[C@H](OC(=O)N3Cc4cccc(Cl)c4C3)C[C@@H]12` [Compound 228], for which, at NS3-NS4 [1], the EC50 was under 100 nM. In addition, the IC50 at NS3-NS4 [2] is under 100 nM.

Regarding `CC(C)(C)OC(=O)N[C@H]1CCCCC/C=C\[C@@H]2C[C@@]2(C(=O)NS(=O)(=O)c2cc3ccccc3o2)NC(=O)[C@@H]2C[C@@H](OC(=O)N3Cc4cccc(F)c4C3)CN2C1=O` [Compound 542], the EC50 on NS3-NS4 [1] lay in the range of 100 to 1000 nM. The compound also had an IC50 against NS3-NS4 [2] of under 100 nM.

On NS3-NS4 [1], `O=C1N[C@]2(C(=O)NS(=O)(=O)C3CC3)C[C@H]2/C=C\CCCCC[C@H](Nc2ccc(F)cc2)C(=O)N2C[C@H](OC(=O)N3Cc4cccc(F)c4C3)C[C@@H]12` [Compound 447, (2R,6S,13aS,14aR,16aS,Z)-14a-(cyclopropylsulfonylcarbamoyl)-6-(4-fluorophenylamino)-5,16-dioxo-1,2,3,5,6,7,8,9,10,11,13a,14,14a,15,16,16a-hexadecahydrocyclopropa[e]pyrrolo[1,2-a][1,4]diazacyclopentadecin-2-yl 4-fluoroisoindoline-2-carboxylate] returned a half-maximal effective concentration (EC50) of under 100 nM. For the same compound, the IC50 on NS3-NS4 [2] is under 100 nM.

On NS3-NS4 [1], `CCC(C)(C)OC(=O)N[C@H]1CCCCC/C=C\[C@@H]2C[C@@]2(C(=O)NS(=O)(=O)c2cc(Cl)sc2Cl)NC(=O)[C@@H]2C[C@@H](OC(=O)N3Cc4cccc(F)c4C3)CN2C1=O` [Compound 344] came in with an EC50 of under 100 nM. The compound also came in with an IC50 against NS3-NS4 [2] of under 100 nM.

Compound `O=C1N[C@]2(C(=O)NS(=O)(=O)C3CC3)C[C@H]2/C=C\CCCCC[C@H](Nc2nc(-c3ccc(Br)cc3)cs2)C(=O)N2C[C@H](OC(=O)N3Cc4cccc(F)c4C3)C[C@@H]12` [Compound 220] returned an EC50 on NS3-NS4 [1] of under 100 nM. This compound also had a half-inhibitory concentration (IC50) against NS3-NS4 [2] of under 100 nM.

Take `CC(C)(C)OC(=O)N[C@H]1CCCCC/C=C\[C@@H]2C[C@@]2(C(=O)NOc2ccccc2)NC(=O)[C@@H]2C[C@@H](OC(=O)N3Cc4cccc(F)c4C3)CN2C1=O` [Compound 711]: on NS3-NS4 [1], the EC50 lay within 1000 to 10000 nM. For the same compound, the half-maximal inhibitory concentration (IC50) against NS3-NS4 [2] was under 100 nM.

Turning to `CC(C)(C)OC(=O)N[C@H]1CCCCC[C@H]2C[C@H]2[C@@H]2C[C@@]2(C(=O)NS(=O)(=O)C2(C)CC2)NC(=O)[C@@H]2C[C@@H](OC(=O)N3Cc4cccc(F)c4C3)CN2C1=O` [Compound 903], the half-maximal effective concentration (EC50) on NS3-NS4 [1] was under 100 nM. On NS3-NS4 [2], this compound returned an IC50 of under 100 nM.

At NS3-NS4 [1], `O=C(N[C@H]1CCCCC/C=C\[C@@H]2C[C@@]2(C(=O)NS(=O)(=O)C2CC2)NC(=O)[C@@H]2C[C@@H](OC(=O)N3Cc4cccc(Cl)c4C3)CN2C1=O)OC1CCOCC1` [Compound 411] showed an EC50 of under 100 nM. Further, the concentration for half-maximal inhibition (IC50) against NS3-NS4 [2] was under 100 nM.

Turning to `CCc1cnc(N[C@H]2CCCCC/C=C\[C@@H]3C[C@@]3(C(=O)NS(=O)(=O)C3CC3)NC(=O)[C@@H]3C[C@@H](OC(=O)N4Cc5cccc(F)c5C4)CN3C2=O)s1` [Compound 230], on NS3-NS4 [1], the concentration for a half-maximal effect (EC50) was under 100 nM. The compound further had an IC50 against NS3-NS4 [2] of under 100 nM.

`O=C1N[C@]2(C(=O)NS(=O)(=O)C3CC3)C[C@H]2/C=C\CCCCC[C@H](Nc2nc(-c3ccc(F)c(F)c3)cs2)C(=O)N2C[C@H](OC(=O)N3Cc4cccc(F)c4C3)C[C@@H]12` [Compound 223]: on NS3-NS4 [1], the EC50 was under 100 nM. The compound further had an IC50 at NS3-NS4 [2] of under 100 nM.

At NS3-NS4 [1], `CC(C)(C)OC(=O)N[C@H]1CCCCCCC[C@@H]2C[C@@]2(C(=O)NS(=O)(=O)c2cc3ccccc3o2)NC(=O)[C@@H]2C[C@@H](OC(=O)N3Cc4cccc(F)c4C3)CN2C1=O` [Compound 648] registered a concentration for a half-maximal effect (EC50) of 100 to 1000 nM. The IC50 at NS3-NS4 [2] was under 100 nM.

Compound `CN(C(=O)N[C@H]1CCCCC/C=C\[C@@H]2C[C@@]2(C(=O)NS(=O)(=O)C2(C)CC2)NC(=O)[C@@H]2C[C@@H](OC(=O)N3Cc4cccc(F)c4C3)CN2C1=O)C(C)(C)C` [Compound 440] displayed an EC50 on NS3-NS4 [1] of under 100 nM. Further, the IC50 against NS3-NS4 [2] is under 100 nM.

Consider `CC(C)(C)OC(=O)N[C@H]1CCCCCCC[C@@H]2C[C@@]2(C(=O)NS(=O)(=O)c2ccccc2Cl)NC(=O)[C@@H]2C[C@@H](OC(=O)N3Cc4cccc(F)c4C3)CN2C1=O` [Compound 603], for which, on NS3-NS4 [1], the EC50 is under 100 nM. The IC50 on NS3-NS4 [2] was under 100 nM.

At NS3-NS4 [1], `CC(=O)O[C@@H]1C[C@H]2C(=O)N[C@]3(C(=O)NS(=O)(=O)C4CC4)C[C@H]3/C=C\CCCCC[C@H](Nc3ncc(-c4ccccc4)s3)C(=O)N2C1` [Compound 203, (2R,6S,13aS,14aR,16aS,Z)-14a-(cyclopropylsulfonylcarbamoyl)-5,16-dioxo-6-(5-phenylthiazol-2-ylamino)-1,2,3,5,6,7,8,9,10,11,13a,14,14a,15,16,16a-hexadecahydrocyclopropa[e]pyrrolo[1,2-a][1,4]diazacyclopentadecin-2-yl acetate] gave an EC50 of 1000 to 10000 nM. The compound further yielded an IC50 at NS3-NS4 [2] of under 100 nM.

For the compound `Cc1ccc(S(=O)(=O)NC(=O)[C@@]23C[C@H]2/C=C\CCCCC[C@H](NC(=O)OC(C)(C)C)C(=O)N2C[C@H](OC(=O)N4Cc5cccc(F)c5C4)C[C@H]2C(=O)N3)s1` [Compound 538], the EC50 at NS3-NS4 [1] was under 100 nM. Besides, the IC50 on NS3-NS4 [2] is under 100 nM.

Turning to `CC(C)(C)OC(=O)N[C@H]1CCCCCCC[C@@H]2C[C@@]2(C(=O)NS(=O)(=O)c2cc(Cl)sc2Cl)NC(=O)[C@@H]2C[C@@H](OC(=O)N3Cc4cccc(F)c4C3)CN2C1=O` [Compound 606], the EC50 at NS3-NS4 [1] was under 100 nM. For the same compound, the IC50 against NS3-NS4 [2] was under 100 nM.

Compound `CC(C)(C)OC(=O)N[C@H]1CCCCC/C=C\[C@@H]2C[C@@]2(C(=O)NS(=O)(=O)Cc2ccc(Cl)cc2Cl)NC(=O)[C@@H]2C[C@@H](OC(=O)N3Cc4cccc(F)c4C3)CN2C1=O` [Compound 524] showed a half-maximal effective concentration (EC50) on NS3-NS4 [1] of 100 to 1000 nM. On NS3-NS4 [2], this compound returned an IC50 of under 100 nM.

As for `CC(C)(C)OC(=O)N[C@H]1CCCCC/C=C\[C@@H]2C[C@@]2(C(=O)NS(=O)(=O)C2(C)CC2)NC(=O)[C@@H]2C[C@@H](OC(=O)N3Cc4cccc(F)c4C3)CN2C1=O` [Compound 444], the half-maximal effective concentration (EC50) on NS3-NS4 [1] was under 100 nM. This compound also showed an IC50 on NS3-NS4 [2] of under 100 nM.

At NS3-NS4 [1], `CC(C)(C)OC(=O)N[C@H]1CCCCC/C=C\[C@@H]2C[C@@]2(C(=O)NS(=O)(=O)c2ccccc2C(F)(F)F)NC(=O)[C@@H]2C[C@@H](OC(=O)N3Cc4cccc(F)c4C3)CN2C1=O` [Compound 345] came in with an EC50 of under 100 nM. In addition, the IC50 at NS3-NS4 [2] is under 100 nM.

`CC(C)(C)OC(=O)N[C@H]1CCCCC/C=C\[C@@H]2C[C@@]2(C(=O)NS(=O)(=O)c2c(Cl)cccc2Cl)NC(=O)[C@@H]2C[C@@H](OC(=O)N3Cc4cccc(F)c4C3)CN2C1=O` [Compound 311]: at NS3-NS4 [1], the concentration for a half-maximal effect (EC50) is 100 to 1000 nM. This compound also registered a 50% inhibitory concentration (IC50) against NS3-NS4 [2] of under 100 nM.

At NS3-NS4 [1], `CC(C)(C)OC(=O)N[C@H]1CCCCCCC[C@@H]2C[C@@]2(C(=O)NS(=O)(=O)c2ccc(Cl)nc2Cl)NC(=O)[C@@H]2C[C@@H](OC(=O)N3Cc4cccc(F)c4C3)CN2C1=O` [Compound 637] showed an EC50 of 100 to 1000 nM. Also, the half-maximal inhibitory concentration (IC50) against NS3-NS4 [2] was under 100 nM.

As for `CC(C)CS(=O)(=O)NC(=O)[C@@]12C[C@H]1/C=C\CCCCC[C@H](NC(=O)OC(C)(C)C)C(=O)N1C[C@H](OC(=O)N3Cc4cccc(F)c4C3)C[C@H]1C(=O)N2` [Compound 551], the half-maximal effective concentration (EC50) at NS3-NS4 [1] was under 100 nM. The compound also returned a half-maximal inhibitory concentration (IC50) at NS3-NS4 [2] of under 100 nM.

`CC(C)(C)O[C@@H]1C[C@H]2C(=O)N[C@]3(C(=O)NS(=O)(=O)C4CC4)C[C@H]3/C=C\CCCCC[C@H](Nc3nc(-c4ccccc4)c(-c4ccccc4)s3)C(=O)N2C1` [Compound 242] gave a half-maximal effective concentration (EC50) on NS3-NS4 [1] of 1000 to 10000 nM. At NS3-NS4 [2], the IC50 was under 100 nM.

`Cc1cc(S(=O)(=O)NC(=O)[C@@]23C[C@H]2/C=C\CCCCC[C@H](NC(=O)OC(C)(C)C)C(=O)N2C[C@H](OC(=O)N4Cc5cccc(F)c5C4)C[C@H]2C(=O)N3)oc1C` [Compound 534] yielded an EC50 on NS3-NS4 [1] of 100 to 1000 nM. Also, on NS3-NS4 [2], the IC50 was under 100 nM.

With `CC(C)(C)OC(=O)N[C@H]1CCCCCCC[C@@H]2C[C@@]2(C(=O)NOCC2CC2)NC(=O)[C@@H]2C[C@@H](OC(=O)N3Cc4cccc(F)c4C3)CN2C1=O` [Compound 813], the EC50 at NS3-NS4 [1] is under 100 nM. Also, on NS3-NS4 [2], the half-inhibitory concentration (IC50) was under 100 nM.

Values taken from US20090155209A1, “NOVEL MACROCYCLIC INHIBITORS OF HEPATITIS C VIRUS REPLICATION” (priority 2007, published 2009).
